In US12129312B2, “Peptide compound, application thereof and composition containing same” (priority 2017, dated 2024):
Square brackets hold non-standard residues; d marks the D form. Peptide text beside a SMILES is read from it. * marks the point of attachment. Hydrocinnamoyl = O=C(CCc1ccccc1)*; Tic = O=C(O)[C@@H]1Cc2ccccc2CN1; NMeL = CN[C@@H](CC(C)C)C(=O)O

How the values were obtained:
[1] = Plasma stability, human plasma; assay type: in vitro ADME; conditions: 37° C., time points 0 minute, 1, 2 and 4 hours, LC-MS/MS, read-out: Human plasma (T1/2 (h)) (converted)
Experimental: (§1) 1. Preparation of 50 mM Phosphate Buffer (50 mM Sodium Phosphate and 70 mM NaCl):
(§2) 5.750 g of Na2HPO4, 1.141 g of NaH2PO4 and 4.095 g of NaCl (Shanghai Titan) were weighed and dissolved in 1000 mL of ultrapure water and the pH was adjusted to 7.4. The prepared phosphate buffer was stored in the refrigerator at 4° C., valid for one week.
(§3) 2. Preparation of Compound Stock Solution:
(§4) 1) 5 mg/mL test compound: 5 mg of compound was weighed and dissolved in 1 mL of DMSO.
(§5) 2) 20 mM control: 2.728 mg of nococaine was dissolved in 0.5 mL of DMSO. 3.878 mg of fenfluramide was dissolved in 0.5 mL of DMSO (Amresco).
(§6) 3. Preparation of Experimental Plasma:
(§7) The frozen plasma (human: Shanghai ChemPartner, Rat, Mouse: Shanghai Xipuer-Beikai, Dog, Monkey: Suzhou Xishan Zhongke) was taken out from the −80° C. refrigerator, immediately placed in a 37° C. water bath, and thawn with gentle shaking. The thawed plasma was poured into a centrifuge tube, and centrifuged at 3000 rpm for 8 minutes. The supernatant was collected for the experiment. The pH of the plasma was measured with a pH meter (METTLER TOLEDO), and only the plasma with a pH between 7.4 and 8 was used for the experiment. The plasma was placed on an ice bath for later use.
(§8) 4. Preparation of the Dosing Solution:
(§9) 1) 125 μg/mL test compound solution: 5 μL of 5 mg/mL test compound (see step 2) was added to 195 μL DMSO; 500 μM control solution: 20 mM control stock solution (see step 2) was added to 195 μL DMSO.
(§10) 2) 0.5% BSA phosphate buffer solution: 0.05 g of BSA was added to 10 mL of phosphate buffer (see step 1).
(§11) 3) 5 μg/mL test compound dosing solution: 40 μL of 125 μg/mL test compound solution was added to 960 μL of 0.5% BSA phosphate buffer solution, shaken and mixed evenly, and the dosing solution was placed in a 37° C. water bath and preheated for 5 minutes.
(§12) 20 μM control dosing solution: 40 μL of 500 μM control solution was added to 960 μL of 0.5% BSA phosphate buffer solution, shaken and mixed evenly, and the dosing solution was placed in a 37° C. water bath and preheated for 5 minutes.
(§13) 5. 10 μL of 5 μg/mL test compound and 20 μM control solution were added to the wells of the 96-well plate set at different time points (0 minute, 1 hour, 2 hours and 4 hours). The number of duplicate samples was 3.
(§14) 6. 500 μL of ACN (IS) containing 5% FA was added to the wells set at 0 minute. 90 μL of plasma was then added thereto, mixed evenly, sealed with the film and stored at 4° C. (the number of duplicates was 3).
(§15) 7. 90 μL of plasma was added to the wells set at 1 hour, 2 hours and 4 hours (the number of replicates was 3), followed by timing (the final concentration of the test compound was 500 ng/mL, and that of the control was 2 μM).
(§16) 9. All samples (0 minutes, 1 hour, 2 hours, and 4 hours) at different time points on the 96-well plate were placed on a shaker (IKA, MTS 2/4) and shaken at 600 rpm for 60 minutes. The samples were then centrifuged for 15 minutes on a centrifuge machine (Thermo Multifuge×3R) at 5594×g.
(§17) 10. 150 μL of the supernatant was taken out from the centrifuged sample and sent to LC-MS/MS for analysis (conventional peptide LC-MS/MS analysis).

[2] = Plasma stability, mouse plasma; assay type: in vitro ADME; conditions: 37° C., 0-4 hours, LC-MS/MS, "Very long" = no significant degradation found in the test (4 hours)
Experimental: as §1, §2, §3, §4, §5, §6, §7, §8, §9, §10, §11, §12, §13, §14, §15, §16, §17

| Compound | half-life at 500 ng/mL [1] [h] | half-life at 500 ng/mL ([2]; read-out: Mouse plasma (T1/2 (h)) (converted)) [h] | Mouse plasma (T1/2 (h)) ([2]; 500 ng/mL) |
| --- | --- | --- | --- |
| CC(C)C[C@H](NC(=O)[C@H](Cc1ccccc1)NC(=O)[C@H](N)Cc1ccc(O)cc1)C(=O)N1CCC[C@H]1C(=O)N[C@H](CO)C(=O)N[C@@H](CCC(N)=O)C(=O)N[C@@H](Cc1ccccc1)C(=O)N[C@H](C)C(=O)N1Cc2ccccc2C[C@H]1C(=O)N[C@@H](CO)C(=O)O [YW-3, (D-Tyr)-Phe-Leu-Pro-(D-Ser)-Gln-Phe-(D-Ala)-Tic-Ser, reference compound] (H-[dY]FLP[dS]QF[dA][Tic]S-OH) | 12.8 | 35.4 | – |
| CC(C)C[C@@H](C(=O)N1CCC[C@H]1C(=O)N[C@H](CO)C(=O)N[C@@H](CCC(N)=O)C(=O)N[C@@H](Cc1ccccc1)C(=O)N[C@H](C)C(=O)N1Cc2ccccc2C[C@H]1C(=O)N[C@@H](CO)C(=O)O)N(C)C(=O)[C@H](Cc1ccccc1)NC(=O)[C@@H](Cc1ccc(O)cc1)NC(=O)CCc1ccccc1 [YW-111, 3-phenylpropanoyl-(D-Tyr)-Phe-(NMe-Leu)-Pro-(D-Ser)-Gln-Phe-(D-Ala)-Tic-Ser-OH] (Hydrocinnamoyl-[dY]F[NMeL]P[dS]QF[dA][Tic]S-OH) | 71 | – | Very long |
